Tests used:
[1] = Bubble cell test, corrosion rate by linear polarization resistance (LPR); settings: 66° C.; for % Protection: 10 ppm CI composition (2 ppm active) with 0.5 ppm 2-mercaptoethanol, versus avg. blank corrosion rate, 22 hour; for Corrosion rate after 22 hour CI injection: 10 ppm CI composition (20% active = 2 ppm active) with 0.5 ppm 2-mercaptoethanol, CO2-saturated synthetic brine 80% / LVT-200 20%, 100 rpm
Description: Examples were conducted to assess the corrosion inhibitors produced in Example 1 using bubble cell tests to assess corrosion performance using linear polarization resistance testing. The corrosion inhibitor was combined with the sulfur synergist 2-mercaptoethanol.
The bubble test simulates low flow areas where little or no mixing of water and oil occurs. The test was conducted using synthetic brine (80% of the brine and 20% of a hydrocarbon containing LVT-200) as shown in Table 1.
The brine was placed into kettles and purged with carbon dioxide resulting in carbon dioxide saturated brine. The brine was continually purged with carbon dioxide at 1 bar CO2 to saturate the brine prior to starting the test for a 2 hour pre-corrode. After the test began, the test cell was blanketed with carbon dioxide one hour prior to electrode insertion and through the duration of the test to maintain saturation. The kettles were stirred at 100 revolutions per minute (rpm) for the duration of the test at 66° C.
The corrosion rate was measured by Linear Polarization Resistance (LPR) techniques. The working electrode used was carbon steel (C1018 grade). The counter and reference electrodes were both 1018 carbon steel. The electrodes were all cleaned and polished prior to testing. Data were collected for 2 hours before 10 ppm of the corrosion inhibitor composition (containing 20% of the reaction product corrosion inhibitor) was added to the hydrocarbon phase, equating to 2 ppm of the active reaction product corrosion inhibitor with 0.5 ppm 2-mercaptoethanol being introduced into the test cell. Data were collected overnight for 22 hour test duration.

[2] = Partitioning test, brine/oil, LC-MS analysis; format: physicochemical; settings: 50 ppm dosed into oil layer; 50 mL synthetic brine, 25 mL aromatic 150, 25 mL LVT 200; room temperature; 1 hour rest
Description: Additional comparison testing was conducted on the alkyl diquaternary compound corrosion inhibitor of Example 1 (corrosion inhibitor VIa) compared to as conventional quaternary ammonium compounds. Partitioning tests were conducted of the corrosion inhibitor (VIa) and a quaternary ammonium compound (trimethylstearyl benzyl chloride quat) to determine the partitioning coefficient via LC-MS (Liquid Chromatography-Mass Spectroscopy) analysis.
At room temperature, 50 mL of the synthetic brine of Table 1, 25 mL of aromatic 150, and 25 mL of LVT 200 were pipetted into a 125-mL separational funnel. 50 ppm of the corrosion inhibitor (VIa) or trimethylstearyl benzyl chloride quat were dosed into the oil layer of the funnel. The cap was inserted into the funnel and the mixture was shaken vigorously for one minute and then set for an hour. After the hour rest, the bottom layer (brine layer) was drained and collected for LC-MS analysis. LC-MS analysis determines the amount of the corrosion inhibitor (VIa) and trimethylstearyl benzyl chloride quat that partitioned into the brine phase. The amount found in the brine phase was compared to the original amount introduced into the oil phase of the brine/oil solution (50 ppm) and a percentage amount is calculated. The percent amount of the corrosion inhibitor (VIa) and trimethylstearyl benzyl chloride quat present in the brine phase is shown in Table 4.

With `CCCCCCCCCCCCCCCCCC[N+](C)(C)CC(O)C[N+](CCO)(CCO)CCO` (stereo not drawn) [VIa] the “% Protection” value [1] was 99.3%, the “Corrosion rate after 22 hour CI injection” value [1] was 1.5 mpy and the “% Partitioning to brine phase” value [2] was 84.1%.
With alkyl dimethyl benzyl chloride quat the “% Protection” value [1] was 99.3% and the “Corrosion rate after 22 hour CI injection” value [1] was 1.4 mpy.
With trimethylstearyl benzyl chloride quat the “% Partitioning to brine phase” value [2] was 28.4%.

From patent publication US20250075126A1, “DIQUATERNARY COMPOUNDS FOR CORROSION INHIBITION AND METHODS OF USE THEREOF” (ChampionX LLC, priority 2023, published 2025)
